{"source": "patent US20130331261A1", "about": "(priority 2010, published 2013)", "type_in_all_cases": "cell-based", "key": {"[1]": {"test_system": "Fumonisin FB1 production by Fusarium proliferatum", "assay": "Inhibition of fumonisin FB1 production by Fusarium proliferatum in fumonisin-inducing liquid media (HPLC-MS/MS)", "details": "120 h, 5 days at 20° C., vs control without compound"}, "Fusarium proliferatum": {"test_system": "Fusarium proliferatum", "assay": "microbe, parasite or virus in culture", "details": "120 h"}, "[2]": {"test_system": "DON/Acetyl-DON production by Fusarium graminearum", "assay": "microbe, parasite or virus in culture", "details": "168 h, read-out: % Inhibition of DON/AcDON at 50 μM"}, "Fusarium graminearum": {"test_system": "Fusarium graminearum", "assay": "microbe, parasite or virus in culture", "details": "72 h, read-out: % Inhibition of fungal growth at 50 μM"}, "[3]": {"test_system": "Production of Aflatoxins by Aspergillus parasiticus", "assay": "microbe, parasite or virus in culture", "details": "168 h, read-out: % Inhibition of Aflatoxin at 50 μM"}, "Aspergillus parasiticus": {"test_system": "Aspergillus parasiticus", "assay": "microbe, parasite or virus in culture", "details": "168 h, read-out: % Inhibition of fungal growth at 50 μM"}}, "data": [{"smiles": "COC(c1ccc(Cl)cc1Cl)C(C)NC(=O)c1cn(C)nc1C(F)F", "note": "(stereo not drawn) [Example 1]", "values": [{"measurement": "inhibition at 50 µM", "setting": "[1]", "result": 100, "unit": "%"}, {"measurement": "inhibition at 50 µM", "setting": "Fusarium proliferatum", "result": 67, "unit": "%"}, {"measurement": "inhibition at 50 µM", "setting": "[2]", "result": 100, "unit": "%"}, {"measurement": "inhibition at 50 µM", "setting": "Fusarium graminearum", "result": 54, "unit": "%"}, {"measurement": "inhibition at 50 µM", "setting": "[3]", "result": 100, "unit": "%"}, {"measurement": "inhibition at 50 µM", "setting": "Aspergillus parasiticus", "result": 100, "unit": "%"}]}, {"smiles": "COC(c1ccc(Cl)cc1Cl)C(C)NC(=O)c1c(C)nn(C)c1F", "note": "(stereo not drawn) [Example 2]", "values": [{"measurement": "inhibition at 50 µM", "setting": "[1]", "result": 100, "unit": "%"}, {"measurement": "inhibition at 50 µM", "setting": "Fusarium proliferatum", "result": 77, "unit": "%"}, {"measurement": "inhibition at 50 µM", "setting": "[2]", "result": 100, "unit": "%"}, {"measurement": "inhibition at 50 µM", "setting": "Fusarium graminearum", "result": 58, "unit": "%"}, {"measurement": "inhibition at 50 µM", "setting": "[3]", "result": 100, "unit": "%"}, {"measurement": "inhibition at 50 µM", "setting": "Aspergillus parasiticus", "result": 100, "unit": "%"}]}, {"smiles": "COC(c1ccc(Cl)cc1Cl)C(C)NC(=O)c1c(C(F)F)nn(C)c1F", "note": "(stereo not drawn) [Example 3]", "values": [{"measurement": "inhibition at 50 µM", "setting": "[1]", "result": 100, "unit": "%"}, {"measurement": "inhibition at 50 µM", "setting": "Fusarium proliferatum", "result": 86, "unit": "%"}, {"measurement": "inhibition at 50 µM", "setting": "[2]", "result": 100, "unit": "%"}, {"measurement": "inhibition at 50 µM", "setting": "Fusarium graminearum", "result": 41, "unit": "%"}, {"measurement": "inhibition at 50 µM", "setting": "[3]", "result": 100, "unit": "%"}, {"measurement": "inhibition at 50 µM", "setting": "Aspergillus parasiticus", "result": 100, "unit": "%"}]}]}
